Assays:
T1R1/T1R3 [1] = molecular target: T1, T1R1/T1R3 (Homo sapiens (Human), UniProt Q7RTX0+Q7RTX1); assay: Umami enhancement assay: MSG dose response with and without compound; assay type: cell-based; settings: Table 1
Description: In enhancement assay experiments, a MSG dose response was run and a second MSG dose response was run with a certain amount of candidate compound at every MSG concentrations at the same time. Then, the EC50 ratio is calculated based on the following definitions: EC50 Ratio=EC50(MSG)/EC50(MSG+[Compound])
wherein “[compound]” refers to the concentration of compound used to elicit (or enhance or potentiate) the MSG dose response. Those concentrations can vary from a pM to an mM, more preferred, from a low nM to μM.
(§1) HEK-Gα15 cells were engineered to inducibly express T1R1/T1R3 using the GeneSwitch system (Invitrogen). pGene-derived zeocin-resistant expression vectors for human T1R1 and T1R3 (plasmid SXV603 for T1R1 and SXV611 for T1R3) and a puromycin-resistant pSwitch-derived vector that carries the GeneSwitch protein (plasmid SXV628) were linearized and cotransfected into the HEK-Gα15 cell line. Zeocin-resistant and puromycin-resistant colonies were selected, expanded, induced with variable amounts of mifepristone, and tested by calcium imaging for responses to umami taste stimuli. […] After replacement with 50 μl PBS, stimulation was performed at room temperature by the addition of 50 μl PBS supplemented with different stimuli. The maximal fluorescence from four independent determinations were averaged, corrected for background fluorescence measured prior to compound addition, and normalized to the response to 0.002 mM ionomycin (CALBIOCHEM).

T1R1/T1R3 [2] = molecular target: T1, T1R1/T1R3; assay: Umami FLIPR assay, HEK-Gα15 clone I-17 inducibly expressing T1R1/T1R3; assay type: cell-based; settings: Table 1 Umami Amides
Description: A dose-dependent response curve was determined for a compound, and the compound concentration corresponding to 50% of the maximal response was derived from the curve, in one example.
Regarding umami tastants and enhancers, scores of their activities can be given as percentage of the maximum MSG intensity (%). In compound dose response, an EC50 can be calculated to reflect the potency of the compound as umami agonist.
as §1

T1 sequence (Q7RTX1 21-841): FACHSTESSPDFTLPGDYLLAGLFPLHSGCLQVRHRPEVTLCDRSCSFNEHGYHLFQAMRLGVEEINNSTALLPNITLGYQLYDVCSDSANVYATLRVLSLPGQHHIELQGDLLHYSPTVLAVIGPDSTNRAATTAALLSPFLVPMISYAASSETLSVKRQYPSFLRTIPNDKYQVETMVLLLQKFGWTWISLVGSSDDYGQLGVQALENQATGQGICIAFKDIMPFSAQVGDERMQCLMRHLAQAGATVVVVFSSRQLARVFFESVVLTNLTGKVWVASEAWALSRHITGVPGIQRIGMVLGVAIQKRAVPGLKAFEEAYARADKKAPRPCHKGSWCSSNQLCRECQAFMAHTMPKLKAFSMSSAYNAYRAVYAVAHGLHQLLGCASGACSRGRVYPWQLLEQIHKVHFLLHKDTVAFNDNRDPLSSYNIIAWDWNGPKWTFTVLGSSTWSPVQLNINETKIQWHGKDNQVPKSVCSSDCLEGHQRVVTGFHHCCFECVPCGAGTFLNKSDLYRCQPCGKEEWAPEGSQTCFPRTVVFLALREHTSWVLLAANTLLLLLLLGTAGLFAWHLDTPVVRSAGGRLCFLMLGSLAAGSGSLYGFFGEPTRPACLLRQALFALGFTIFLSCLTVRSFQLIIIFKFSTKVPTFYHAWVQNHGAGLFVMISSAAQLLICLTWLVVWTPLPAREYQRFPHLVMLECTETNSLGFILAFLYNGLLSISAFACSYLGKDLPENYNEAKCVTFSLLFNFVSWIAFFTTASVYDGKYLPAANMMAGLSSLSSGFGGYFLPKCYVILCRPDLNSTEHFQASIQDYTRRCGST
T1 sequence (Q7RTX0 21-852 C757R): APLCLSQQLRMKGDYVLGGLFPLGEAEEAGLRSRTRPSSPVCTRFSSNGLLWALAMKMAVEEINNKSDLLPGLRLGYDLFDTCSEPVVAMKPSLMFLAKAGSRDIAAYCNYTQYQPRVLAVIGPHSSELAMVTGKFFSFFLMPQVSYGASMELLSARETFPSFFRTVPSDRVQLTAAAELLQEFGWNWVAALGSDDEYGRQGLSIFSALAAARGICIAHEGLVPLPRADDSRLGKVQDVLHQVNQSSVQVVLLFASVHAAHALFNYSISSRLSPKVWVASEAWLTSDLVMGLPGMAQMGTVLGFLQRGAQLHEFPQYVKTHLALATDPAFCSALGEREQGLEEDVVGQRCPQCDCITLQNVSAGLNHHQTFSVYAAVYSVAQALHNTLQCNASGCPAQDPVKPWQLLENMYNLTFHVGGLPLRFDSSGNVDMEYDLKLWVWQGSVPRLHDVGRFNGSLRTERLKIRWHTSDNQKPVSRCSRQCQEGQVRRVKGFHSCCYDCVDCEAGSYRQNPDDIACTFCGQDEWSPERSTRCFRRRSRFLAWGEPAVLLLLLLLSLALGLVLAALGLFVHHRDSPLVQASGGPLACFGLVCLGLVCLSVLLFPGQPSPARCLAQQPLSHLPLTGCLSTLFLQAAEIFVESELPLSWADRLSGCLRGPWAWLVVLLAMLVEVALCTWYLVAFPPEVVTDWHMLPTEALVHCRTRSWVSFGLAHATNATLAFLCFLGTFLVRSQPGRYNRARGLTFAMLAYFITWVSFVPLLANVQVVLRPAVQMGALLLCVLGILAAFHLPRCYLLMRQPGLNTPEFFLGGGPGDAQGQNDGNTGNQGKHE

SMILES: COC(=O)C(CC(C)C)NC(=O)c1cc2cc(OC)ccc2o1 (stereo in doubt) [Compound A6]
- Ec50 ratio (vs. MSG) (T1R1/T1R3 [1]; compound @ 1 uM): 2.86

SMILES: CCOc1ccc(NC(=O)c2c(Cl)ccc(Cl)c2OC)cc1 [Compound A1]
- Ec50 ratio (vs. MSG) (T1R1/T1R3 [1]; compound @ 1 uM): 2.74

SMILES: COC(=O)c1ccc(NC(=O)c2c(Cl)ccc(Cl)c2OC)cc1 [Compound A2]
- Ec50 ratio (vs. MSG) (T1R1/T1R3 [1]; compound @ 0.01 uM): 6.98

SMILES: CCOc1ccc(NC(=O)c2cc(Cl)ccc2Cl)cc1 [Compound A3]
- Ec50 ratio (vs. MSG) (T1R1/T1R3 [1]; compound @ 0.03 uM): 6.14

SMILES: CCC(COC)NC(=O)c1cc2cc(Cl)ccc2o1 (centres unmarked) [Compound A11]
- Ec50 ratio (vs. MSG) (T1R1/T1R3 [1]; compound @ 0.3 uM): 6.5

SMILES: CCC(CC)NC(=O)c1cc2cc(OC)ccc2o1 [Compound A13]
- Ec50 ratio (vs. MSG) (T1R1/T1R3 [1]; compound @ 1 uM): 4.46

SMILES: CCC(CC)NC(=O)c1cc2ccccc2o1 [Compound A21]
- Ec50 ratio (vs. MSG) (T1R1/T1R3 [1]; compound @ 1 uM): 3.74

SMILES: COC(=O)[C@@H](CC(C)C)NC(=O)c1ccc2nc(C)oc2c1 [Compound A25]
- EC50 (T1R1/T1R3 [2]): 1480 nM

SMILES: COC(=O)C(NC(=O)c1ccc2oc(C)nc2c1)C(C)C(C)C (centres unmarked) [Compound A28]
- EC50 (T1R1/T1R3 [2]): 1690 nM

SMILES: CCCC(CCC)NC(=O)c1ccc(Br)o1 [Compound A30]
- Ec50 ratio (vs. MSG) (T1R1/T1R3 [1]; compound @ 1 uM): 12.6

SMILES: CCCC(CCC)NC(=O)c1cc(C)c(C)o1 [Compound A31]
- Ec50 ratio (vs. MSG) (T1R1/T1R3 [1]; compound @ 1 uM): 10.04

SMILES: CCCC(CCC)NC(=O)c1ccc2cc[nH]c2c1 [Compound A35]
- Ec50 ratio (vs. MSG) (T1R1/T1R3 [1]; compound @ 1 uM): 8.81

SMILES: CCCC(CCC)NC(=O)c1ccc(C)s1 [Compound A38]
- Ec50 ratio (vs. MSG) (T1R1/T1R3 [1]; compound @ 1 uM): 6.54

SMILES: Cc1ccc(C(=O)NC2CCCc3ccccc32)s1 (centres unmarked) [Compound A39]
- Ec50 ratio (vs. MSG) (T1R1/T1R3 [1]; compound @ 1 uM): 2.3

SMILES: CCCCC(CCCC)NC(=O)c1ccc2c(c1)OCO2 [Compound A41]
- Ec50 ratio (vs. MSG) (T1R1/T1R3 [1]; compound @ 3 uM): 2.14

SMILES: CC[C@@H](C)[C@@](C)(NC(=O)c1ccc2c(c1)OCO2)C(=O)OC [Compound A42]
- EC50 (T1R1/T1R3 [2]): 350 nM

SMILES: CCCC[C@@H](NC(=O)c1ccc2c(c1)OCO2)C(=O)OC [Compound A44]
- EC50 (T1R1/T1R3 [2]): 610 nM

SMILES: COC(=O)[C@@H](CC(C)C)NC(=O)c1ccc2c(c1)OCO2 [Compound A45]
- EC50 (T1R1/T1R3 [2]): 880 nM

SMILES: O=C(N[C@H]1CCCc2ccccc21)c1ccc2c(c1)OCO2 [Compound A47]
- Ec50 ratio (vs. MSG) (T1R1/T1R3 [1]; compound @ 0.1 uM): 6.42

SMILES: CC(CCc1ccccc1)NC(=O)c1ccc2c(c1)OCO2 (centres unmarked) [Compound A48]
- Ec50 ratio (vs. MSG) (T1R1/T1R3 [1]; compound @ 1 uM): 9.27

SMILES: CCCC(NC(=O)c1ccc2c(c1)OCO2)C(=O)OC (centres unmarked) [Compound A49]
- Ec50 ratio (vs. MSG) (T1R1/T1R3 [1]; compound @ 1 uM): 9.53

SMILES: CCCC(CC)NC(=O)c1ccc2c(c1)CCO2 (centres unmarked) [Compound A53]
- EC50 (T1R1/T1R3 [2]): 1830 nM

SMILES: CCCC(CCC)NC(=O)c1ccc(OCC)cc1 [Compound A68]
- Ec50 ratio (vs. MSG) (T1R1/T1R3 [1]; compound @ 0.3 uM): 2.62

SMILES: CCCC(CCC)NC(=O)c1cccc(C(C)(F)F)c1 [Compound A70]
- EC50 (T1R1/T1R3 [2]): 330 nM

SMILES: CCCC(CCC)NC(=O)c1ccc(OC)c(F)c1 [Compound A74]
- Ec50 ratio (vs. MSG) (T1R1/T1R3 [1]; compound @ 0.3 uM): 4.98

SMILES: C=Cc1ccc(C(=O)NC(CCC)CCC)cc1 [Compound A78]
- Ec50 ratio (vs. MSG) (T1R1/T1R3 [1]; compound @ 0.3 uM): 10.22

SMILES: CCCC(C)NC(=O)c1ccc(OC)c(Cl)c1 (centres unmarked) [Compound A80]
- Ec50 ratio (vs. MSG) (T1R1/T1R3 [1]; compound @ 0.1 uM): 5.12

SMILES: CCCC(CCC)NC(=O)c1cccc(OC)c1 [Compound A84]
- EC50 (T1R1/T1R3 [2]): 530 nM

SMILES: COC(=O)[C@@H](CCSC)NC(=O)c1ccc(OC)c(C)c1 [Compound A86]
- EC50 (T1R1/T1R3 [2]): 530 nM

SMILES: COc1cccc(C(=O)NC2CCCc3ccccc32)c1O (centres unmarked) [Compound A87]
- Ec50 ratio (vs. MSG) (T1R1/T1R3 [1]; compound @ 1 uM): 3.8

SMILES: COc1ccc([C@@H](C)NC(=O)c2ccc(OC)c(Cl)c2)cc1 [Compound A89]
- Ec50 ratio (vs. MSG) (T1R1/T1R3 [1]; compound @ 1 uM): 2.85

SMILES: COc1cccc(C(=O)N[C@H]2CCCc3ccccc32)c1O [Compound A93]
- Ec50 ratio (vs. MSG) (T1R1/T1R3 [1]; compound @ 1 uM): 5.7

— patent US9459250B2, “Use of T1R3 venus flytrap region polypeptide to screen for taste modulators” (SENOMYX, INC., priority 2003, dated 2016)
